Laboratory results reported in patent US7947684B2, “1-aroyl-piperidinyl benzamidines” (Aventis Pharmaceuticals Inc., priority 2000, dated 2011).
Counter-ions that a name gives are not always drawn.

What was measured:
Factor Xa = Factor Xa (Homo sapiens, UniProt P00742); assay: Enzyme assay, purified factor Xa, peptide-p-nitroanilide substrate; type: biochemical; conditions: apparent Ki from IC50 by Cheng-Prusoff, room temperature, 1 nM enzyme
Procedure: (§1) All enzyme assays are carried out at room temperature in 96-well microtiter plates using a final enzyme concentration of 1 nM. The concentrations of factor Xa and thrombin are determined by active site titration and the concentrations of all other enzymes are based on the protein concentration supplied by the manufacturer. Compounds according to the invention are dissolved in DMSO, diluted with their respective buffers and assayed at a maximal final DMSO concentration of 1.25%. Compound dilutions are added to wells containing buffer and enzyme and pre-equilibrated for between 5 and 30 minutes. The enzyme reactions are initiated by the addition of substrate and the color developed from the hydrolysis of the peptide-p-nitroanilide substrates is monitored continuously for 5 minutes at 405 nm on a Vmax microplate reader (Molecular Devices). Under these conditions, less than 10% of the substrate is utilized in all assays. […] The apparent Ki values are then determined according to the Cheng-Prusoff equation (IC50=Ki[1+[S]/Km]) assuming competitive inhibition kinetics.

[1] = target: human lung tryptase or recombinant human β tryptase; assay: Tryptase inhibition activity, S2366 substrate; type: biochemical; conditions: room temperature, 0.5 mM substrate
Procedure: as §1
Tryptase inhibition activity is confirmed using either isolated human lung tryptase or recombinant human β tryptase expressed in yeast cells. Essentially equivalent results are obtained using isolated native enzyme or the expressed enzyme. […]

Chain of Factor Xa (P00742 235-488 limits assumed): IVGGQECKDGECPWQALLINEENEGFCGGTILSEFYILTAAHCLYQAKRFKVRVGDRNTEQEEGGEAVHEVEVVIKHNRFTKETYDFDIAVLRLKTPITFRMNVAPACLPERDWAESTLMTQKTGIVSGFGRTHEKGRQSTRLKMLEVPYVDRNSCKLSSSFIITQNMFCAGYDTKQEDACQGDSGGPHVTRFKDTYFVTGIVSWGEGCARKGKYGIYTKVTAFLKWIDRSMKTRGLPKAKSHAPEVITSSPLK
Chain of Factor Xa (P00742 41-179 partner limits assumed): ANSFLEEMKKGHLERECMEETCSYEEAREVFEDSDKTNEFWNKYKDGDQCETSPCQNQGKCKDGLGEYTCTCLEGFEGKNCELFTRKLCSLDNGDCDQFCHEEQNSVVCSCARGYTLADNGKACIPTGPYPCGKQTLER

Row | SMILES | Ki (Factor Xa) [µM] | Ki [1] [µM]
1 | Nc1nccc2[nH]c(C3CCN(C(=O)c4ccc(-c5ccc(=O)[nH]c5)cc4)CC3)cc12 [Example 44, 5-{4-[4-(4-Amino-1H-pyrrolo[3,2-c]pyridin-2-yl)piperidine-1-carbonyl]phenyl}-1H-pyridin-2-one trifluoroacetate] | 0.99 | 
2 | NC(=O)c1cccc(-c2ccc(C(=O)N3CCC(c4ccc5ccnc(N)c5c4)CC3)cc2)c1 [Example 35, 4′-[4-(1-Aminoisoquinolin-7-yl)piperidine-1-carbonyl]biphenyl-3-carboxylic acid amide trifluoroacetate] | 0.57 | 
3 | N=C(N)c1cccc(C2=CCN(C(=O)c3cncc(C#Cc4ccccc4)c3)CC2)c1 [Example 47, 3-[1-(5-Phenylethynyl-pyridine-3-carbonyl)-1,2,3,6-tetrahydropyridin-4-yl]-benzamidine hydrochloride] |  | 0.183
4 | N=C(N)c1cccc(C2=CCN(C(=O)c3ccc(-c4ccc(Cl)s4)cc3)CC2)c1 [Example 11, 3-{1-[4-(5-Chlorothiophen-2-yl)-benzoyl]-1,2,3,6-tetrahydropyridin-4-yl}benzamidine trifluoroacetate] | 0.688 | 
5 | Nc1nccc2ccc(C3=CCN(C(=O)c4ccc(-c5ccc(=O)[nH]c5)cc4)CC3)cc12 [Example 39, 5-{4-[4-(1-Aminoisoquinolin-7-yl)-3,6-dihydro-2H-pyridine-1-carbonyl]phenyl}-1H-pyridin-2-one trifluoroacetate] | 0.14 | 
6 | N=C(N)c1cccc(N2CCN(C(=O)c3cncc(CCc4ccccc4)c3)CC2)c1 [Example 49, 3-[4-(5-Phenylethyl-pyridine-3-carbonyl)-piperazin-1-yl]-benzamidine di-hydrochloride] |  | 1.07

More lines, now with the values ahead:

Row | Ki (Factor Xa) [µM] | Ki [1] [µM] | SMILES
7 | 0.063 |  | N=C(N)c1cccc(C2=CCN(C(=O)c3ccc(-c4ncccn4)cc3)CC2)c1 [Example 16, 3-[1-(4-Pyrimidin-2-ylbenzoyl)-1,2,3,6-tetrahydropyridin-4-yl]-benzamidine ditrifluoroacetate]
8 | 0.034 |  | N=C(N)c1cccc(C2=CCN(C(=O)c3ccc(-c4ccc(Br)o4)cc3)CC2)c1 [Example 10, 3-{1-[4-(5-Bromofuran-2-yl)-benzoyl]-1,2,3,6-tetrahydropyridin-4-yl}benzamidine trifluoroacetate]
9 | 0.005 |  | N=C(N)c1cccc(C2=CCN(C(=O)c3ccc(-c4cccnc4)cc3)CC2)c1 [Example 8, 3-[1-(4-Pyridin-3-yl-benzoyl)-1,2,3,6-tetrahydropyridin-4-yl]benzamidine ditrifluoroacetate]
10 | 0.009 |  | N=C(N)c1cccc(C2CCN(C(=O)c3ccc(-c4ccccn4)cc3)CC2)c1 [Example 25, 3-[1-(4-Pyridin-2-ylbenzoyl)-piperidin-4-yl]benzamidine ditrifluoroacetate]
